Reference: patent US11147816B2, “Composition for inducing differentiation and protection of neural stem cells and method for inducing neuro-regeneration using the same composition” (GENUV Inc., priority 2016, dated 2021)

Columns and labels:
pERK = assay: Western blotting of pERK in brain hemispheres (Example 12); conditions: 0.1 mg/kg and 1.0 mg/kg orally daily for 28 days, vs vehicle
Method: The mouse was then anesthetized and perfused with PBS for the extraction of the brain. Of the brains extracted from 3 mice of each group, half of the brain tissue (hemispheres) was immediately stored in the deep freezer for western blotting and ELISA experiments to be performed later.
The powder was divided into 6 parts, put into new tubes, and placed back into the deep freezer. […] The powder was carefully suspended with a pipette in RIPA buffer, incubated on ice for 10 minutes, centrifuged at 13000 rpm, 4° C., and the supernatant was collected. […] The protein bands were detected with a photosensitive imaging system (FIG. 19a). In order to quantify the change in pERK expression, the expression levels of pERK and ERK were measured by densitometry, and the expression level of pERK was normalized against the expression level of ERK.

5XFAD mouse [1] = assay: Tuj1 expression in the somatosensory cortex (Example 9-1); assay type: in vivo; conditions: 0.1 mg/kg orally daily for 28 days, vs vehicle
Method: Anti-Tuj1 antibodies were added to the brain tissue slides of 5XFAD mouse in Example 8 and incubated at 4° C. for 1 day, after which the tissue slides were fluorescently stained by incubating with Fluorescein isothiocyanate (FITC)-secondary antibodies (Invitrogen, cat#. A21121) at room temperature for 1 hour. In FIG. 15, the areas marked with arrows (→) indicate cells stained with Tuj1 and the areas marked with arrowheads (▾) indicate plaques formed by amyloid-beta aggregation. Plaques were present in both vehicle-treated and trametinib-treated groups.

[2] = test system: mouse adult neural stem cells; assay: qRT-PCR of relative mRNA expression of neuronal markers in mouse adult NSC (Example 4-2); assay type: cell-based; conditions: 10 nM for 2 days
5XFAD mouse [3] = assay: NeuN immunohistochemical staining, number of neurons in the Alzheimer's disease mouse model (Example 8)
Method: For the BrdU staining to be performed later, 50 mg/kg of BrdU (Sigma, cat#. B5002) was added to the daily dose for the last 5 days. The mouse was then anesthetized and perfused with PBS for the extraction of the brain. […] The other half of the hemispheres plus another 3 extracted mice brains per group were placed in 10% formalin solution at 4° C. for 1 day, which was then followed with the proceeding steps to allow good penetration of paraffin into the brain tissue. The brain tissues were immersed sequentially in 70%, 80%, 95%, 100% alcohol for 1 hour each for dehydration, then immersed in xylene 3 times for 1 hour each for clearing, and embedded in paraffin by placing in liquid paraffin 2 times for 1 hour each. After these procedures, the paraffin-embedded brain tissue (paraffin block) was cut into 5 μm sections, mounted on slides, and stored at room temperature. Prior to immunohistochemical staining, the tissues on the slides were rehydrated by sequentially immersing in xylene, 100%, 90%, 80%, 70%, 50% alcohol,and then water for 5 minutes each. […] The next day, the slides were incubated with anti-rabbit antibodies (Vector lab, cat#. PI-1000) at room temperature for 1 hour and then stained with DAB staining for the analysis of the neuronal distribution in the brain.
FIG. 12b indicates the number of NeuN stained cells counted and represented as the percentage of the number of cells per unit area in the somatosensory cortex layer 5 region. Area samples were taken from 3 areas per mouse, 3 mice per group, so the number of cells counted was from a total of 9 areas.
FIG. 13b indicates the number of NeuN stained cells counted and represented as the percentage of the number of cells per unit area in the motor cortex layer 5 region. Area samples were taken from 6 areas per mouse, 3 mice per group, so the number of cells counted was from a total of 18 areas.
FIG. 14b indicates the number of NeuN stained cells counted and represented as the percentage of the number of cells per unit area in the dotted area of the hippocampal subiculum shown in FIG. 14a. Area samples were taken from 3 areas per mouse, 3 mice per group, so the number of cells counted was from a total of 9 areas.

5XFAD mouse [4] = assay: BrdU staining in the hippocampal dentate gyrus (Example 9-3); conditions: orally daily for 28 days, vs vehicle
Method: For the BrdU staining to be performed later, 50 mg/kg of BrdU (Sigma, cat#. B5002) was added to the daily dose for the last 5 days. The mouse was then anesthetized and perfused with PBS for the extraction of the brain. Of the brains extracted from 3 mice of each group, half of the brain tissue (hemispheres) was immediately stored in the deep freezer for western blotting and ELISA experiments to be performed later. The other half of the hemispheres plus another 3 extracted mice brains per group were placed in 10% formalin solution at 4° C. for 1 day, which was then followed with the proceeding steps to allow good penetration of paraffin into the brain tissue. The brain tissues were immersed sequentially in 70%, 80%, 95%, 100% alcohol for 1 hour each for dehydration, then immersed in xylene 3 times for 1 hour each for clearing, and embedded in paraffin by placing in liquid paraffin 2 times for 1 hour each. After these procedures, the paraffin-embedded brain tissue (paraffin block) was cut into 5 μm sections, mounted on slides, and stored at room temperature. Prior to immunohistochemical staining, the tissues on the slides were rehydrated by sequentially immersing in xylene, 100%, 90%, 80%, 70%, 50% alcohol,and then water for 5 minutes each. […]

[5] = test system: mouse embryonic neural stem cells; assay: Morphology analysis of NSC differentiation in mouse embryonic neural stem cells (Examples 1, 6); assay type: cell-based
Method: Neural stem cells were isolated from the brain of a day 14.5 mouse embryo, treated with 10 ng/ml human basic fibroblast growth factor (bFGF) (Peprotech, Princeton, NG, cat#.100-18B) and 20 ng/ml human epidermal growth factor (EGF) (Peprotech, cat#. AF-100-15) in a N2 culture medium, and cultured in suspension in a 25 cm2 flask (Nunc, Pittsburgh, Pa.) for 4 days. Formation of neurospheres was observed after 2 days.
In order to isolate single cells, 6-well plates were prepared the day before by treating the wells with 15 μg/ml poly-L-ornithine (Sigma, St. Louis, Mo., cat#.P2533) solution and incubating overnight at 37° C. for coating. The day of the single cell isolation, poly-L-ornithine solution was removed, the plates were washed with PBS three times, and 10 μg/ml fibronectin (Gibco, Waltham, Mass., cat#. 33016015) solution was added and incubated at 37° C. for 2 hours for coating.
Various concentrations of the compound of [Formula 1] […]

5XFAD mouse [6] = assay: Cerebellar Purkinje cell Tuj1 and calbindin staining (Example 11); assay type: in vivo; conditions: particularly 0.1 mg/kg, orally daily for 28 days, vs vehicle
Text: Two slides for Tuj1 staining and three for calbindin staining are shown for each treatment group.

[7] = 0.1 mg/kg and 1.0 mg/kg orally daily for 28 days, vs vehicle

SMILES: CC(=O)Nc1cccc(-n2c(=O)n(C3CC3)c(=O)c3c(Nc4ccc(I)cc4F)n(C)c(=O)c(C)c32)c1 [trametinib, N-(3-{3-cyclopropyl-5-[(2-fluoro-4-iodophenyl)amino]-6,8-dimethyl-2,4,7-trioxo-3,4,6,7-tetrahydropyrido[4,3-d]pyrimidin-1(2H)-yl}phenyl)acetamide]
- protein level of pERK in the brain (pERK): considerably lower
- number of cells stained with Tuj1, somatosensory cortex (5XFAD mouse [1]): significant increase in the number of cells stained with Tuj1
- mRNA expression of cholinergic neuron marker ChAT [2]: increased the expression
- mRNA expression of dopaminergic neuron marker TH [2]: increased the expression
- mRNA expression of neuronal marker Tuj1 [2]: increased the expression
- number of NeuN stained neurons, hippocampal subiculum (5XFAD mouse [3]; [7]): significant increase in the number of neurons
- number of NeuN stained neurons, motor cortex layer 5 (5XFAD mouse [3]; [7]): significant increase in the number of neurons
- number of NeuN stained neurons, somatosensory cortex layer 5 (5XFAD mouse [3]; [7]): significant increase in the number of neurons stained with NeuN
- dose showing neural stem cell differentiation-inducing activity (5XFAD mouse [3]; 5xFAD mouse experiments): 0.1 mg/kg/day
- number of BrdU stained cells in the dentate gyrus (5XFAD mouse [4]): an increase in the number of cells stained with BrdU
- differentiation of NSC into neurons (morphology) ([5]; 10 nM, 25 nM and 100 nM, added daily, 4 days): readily induced the differentiation of NSC into neurons
- NSC differentiation-inducing effect (morphology) ([5]; 0.1 μM, day 2 of culture): excellent NSC differentiation-inducing effect
- concentration at which the differentiation-inducing effect is seen ([5]; added daily, 4 days of culture): ≥ 10 nM
- Purkinje cell axon structure (5XFAD mouse [6]): increased axon arborization or at least with preserved axon structure
